Test results published in ChEMBL document CHEMBL4610123, “Structure-Based Drug Discovery of N-((R)-3-(7-Methyl-1H-indazol-5-yl)-1-oxo-1-(((S)-1-oxo-3-(piperidin-4-yl)-1-(4-(pyridin-4-yl)piperazin-1-yl)propan-2-yl)amino)propan-2-yl)-2'-oxo-1',2'-dihydrospiro[piperidine-4,4'-pyrido[2,3-d][1,3]oxazine]-1-carboxamide (HTL22562): A Calcitonin Gene-Related …” (J Med Chem, 2020).
≈ marks a conversion by molar mass, not a printed value.

Key:
[1] = Oral bioavailability in cynomolgus monkey at 0.013 mg/kg; assay type: ADME, organism-based, Macaca fascicularis; conditions: in vivo
[2] = Volume of distribution at steady state in dog at 0.5 mg/kg, iv; assay type: ADME, organism-based, Canis lupus familiaris; conditions: in vivo, read-out: Vdss
[3] = Oral bioavailability in rat at 1 mg/kg; assay type: ADME, organism-based; conditions: in vivo
[4] = Thermodynamic solubility of the compound at pH 6; assay type: physicochemical; conditions: buffer, read-out: Therm_solubility
[5] = Half life in rat at 2 mg/kg, iv; assay type: ADME, organism-based; conditions: in vivo
[6] = Half life in dog at 0.5 mg/kg, iv; assay type: ADME, organism-based, Canis lupus familiaris; conditions: in vivo
[7] = molecular target: T1, PXR (NR1I2) (Homo sapiens, UniProt O75469); experiment: Transactivation of PXR (unknown origin) assessed as induction of CYP450 at 3 uM relative to control; assay type: ADME; conditions: read-out: FC
T1 sequence (O75469 whole entry): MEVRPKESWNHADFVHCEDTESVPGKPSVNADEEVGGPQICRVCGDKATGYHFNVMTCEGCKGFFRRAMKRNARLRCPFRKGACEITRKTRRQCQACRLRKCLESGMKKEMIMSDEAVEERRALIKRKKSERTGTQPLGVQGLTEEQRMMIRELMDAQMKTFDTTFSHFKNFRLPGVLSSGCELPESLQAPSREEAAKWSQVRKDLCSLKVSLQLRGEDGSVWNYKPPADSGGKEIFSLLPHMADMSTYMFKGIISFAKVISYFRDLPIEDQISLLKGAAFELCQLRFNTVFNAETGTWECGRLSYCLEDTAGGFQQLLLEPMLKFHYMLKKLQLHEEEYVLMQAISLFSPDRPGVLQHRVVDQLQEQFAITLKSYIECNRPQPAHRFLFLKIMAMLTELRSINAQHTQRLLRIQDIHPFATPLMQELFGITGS

[8] = molecular target: T2, Muscarinic acetylcholine receptor M2 (Homo sapiens) (UniProt P08172); experiment: Antagonist activity at CHRM2 (unknown origin) at 10 uM relative to control
T2 sequence (whole entry): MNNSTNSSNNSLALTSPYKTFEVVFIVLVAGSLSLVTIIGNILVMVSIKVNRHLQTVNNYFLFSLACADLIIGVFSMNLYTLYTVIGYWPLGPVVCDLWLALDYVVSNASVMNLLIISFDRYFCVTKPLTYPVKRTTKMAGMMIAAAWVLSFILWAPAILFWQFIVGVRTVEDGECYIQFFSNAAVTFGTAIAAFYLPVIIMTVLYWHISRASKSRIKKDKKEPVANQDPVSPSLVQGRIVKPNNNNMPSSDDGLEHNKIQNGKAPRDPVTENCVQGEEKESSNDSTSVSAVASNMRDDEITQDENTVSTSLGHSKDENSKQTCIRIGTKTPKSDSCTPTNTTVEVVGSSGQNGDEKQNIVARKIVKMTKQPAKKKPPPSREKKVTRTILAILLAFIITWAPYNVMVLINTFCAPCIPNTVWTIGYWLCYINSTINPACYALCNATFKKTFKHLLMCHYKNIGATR

[9] = Volume of distribution at steady state in cynomolgus monkey at 0.5 mg/kg, iv; assay type: ADME, organism-based, Macaca fascicularis; conditions: in vivo, read-out: Vdss
[10] = molecular target: Cytochrome P450 2C9 (Homo sapiens, UniProt P11712); experiment: Inhibition of CYP2C9 (unknown origin); assay type: ADME
Cytochrome P450 2C9, sequence (P11712 whole entry): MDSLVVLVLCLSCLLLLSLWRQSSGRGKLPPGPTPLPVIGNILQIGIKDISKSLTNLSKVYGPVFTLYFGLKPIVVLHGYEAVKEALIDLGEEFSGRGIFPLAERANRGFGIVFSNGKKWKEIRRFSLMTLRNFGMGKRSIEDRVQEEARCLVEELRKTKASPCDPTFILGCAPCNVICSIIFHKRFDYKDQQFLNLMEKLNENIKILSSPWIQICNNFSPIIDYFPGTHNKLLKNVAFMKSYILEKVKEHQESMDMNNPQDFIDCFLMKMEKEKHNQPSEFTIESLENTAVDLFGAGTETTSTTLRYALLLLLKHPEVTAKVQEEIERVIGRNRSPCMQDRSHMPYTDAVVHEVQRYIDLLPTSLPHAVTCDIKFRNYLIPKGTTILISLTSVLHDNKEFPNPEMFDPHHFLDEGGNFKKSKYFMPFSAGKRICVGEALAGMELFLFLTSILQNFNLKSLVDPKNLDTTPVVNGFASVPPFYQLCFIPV

[11] = Stability of the compound in pH 5.5 solution at 50 degC assessed as loss of purity after 1 week; assay type: physicochemical; conditions: read-out: Drug degradation
[12] = Half life in cynomolgus monkey at 0.013 mg/kg, sc; assay type: ADME, organism-based, Macaca fascicularis; conditions: in vivo
[13] = system: CALCRL/RAMP2 (adrenomedullin AM1 receptor) (Homo sapiens); experiment: Antagonist activity at human adrenomedullin-1 receptor
[14] = Binding affinity to cynomolgus monkey CGRP receptor; parameters: species or system Macaca fascicularis
[15] = molecular target: Cytochrome P450 2D6 (Homo sapiens, UniProt P10635); experiment: Inhibition of CYP2D6 (unknown origin); assay type: ADME
Cytochrome P450 2D6, sequence (P10635 whole entry): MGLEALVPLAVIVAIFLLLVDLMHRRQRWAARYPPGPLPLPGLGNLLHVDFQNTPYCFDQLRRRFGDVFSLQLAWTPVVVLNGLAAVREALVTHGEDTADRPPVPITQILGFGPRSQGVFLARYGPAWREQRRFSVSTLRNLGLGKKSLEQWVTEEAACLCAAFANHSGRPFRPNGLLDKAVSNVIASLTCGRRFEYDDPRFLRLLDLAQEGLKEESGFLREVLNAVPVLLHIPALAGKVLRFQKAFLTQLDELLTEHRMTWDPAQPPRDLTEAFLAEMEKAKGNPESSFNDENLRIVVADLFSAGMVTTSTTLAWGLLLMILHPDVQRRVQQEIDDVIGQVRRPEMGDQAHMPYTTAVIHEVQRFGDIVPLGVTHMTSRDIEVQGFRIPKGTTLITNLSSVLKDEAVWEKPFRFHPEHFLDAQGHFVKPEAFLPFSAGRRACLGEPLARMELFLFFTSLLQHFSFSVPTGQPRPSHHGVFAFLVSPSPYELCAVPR

[16] = Stability of the compound in pH 8 solution at 50 degC assessed as loss of purity after 1 week; assay type: physicochemical; conditions: read-out: Drug degradation
[17] = Half life in cynomolgus monkey hepatocytes; assay type: ADME, cell-based, Macaca fascicularis, Hepatocyte
[18] = Oral bioavailability in cynomolgus monkey at 0.5 mg/kg; assay type: ADME, organism-based, Macaca fascicularis; conditions: in vivo
[19] = Tmax in rat at 1 mg/kg, sc; assay type: ADME, organism-based; conditions: in vivo
[20] = Half life in human hepatocytes; assay type: ADME, cell-based, Hepatocyte
[21] = molecular target: Calcitonin-gene-related peptide receptor, CALCRL/RAMP1 (Homo sapiens, UniProt O60894+Q16602); experiment: Displacement of [3H]telcagepant from recombinant human CLR/RAMP1 expressed in Sf21 insect cell membranes measured after 60 mins by microbeta scintillation counting method
Calcitonin-gene-related peptide receptor, CALCRL/RAMP1, sequence (O60894 whole entry): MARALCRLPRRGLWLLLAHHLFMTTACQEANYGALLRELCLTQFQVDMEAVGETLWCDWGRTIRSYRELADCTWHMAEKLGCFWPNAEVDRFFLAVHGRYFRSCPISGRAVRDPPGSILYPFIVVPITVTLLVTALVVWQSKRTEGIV
Calcitonin-gene-related peptide receptor, CALCRL/RAMP1, sequence (Q16602 whole entry): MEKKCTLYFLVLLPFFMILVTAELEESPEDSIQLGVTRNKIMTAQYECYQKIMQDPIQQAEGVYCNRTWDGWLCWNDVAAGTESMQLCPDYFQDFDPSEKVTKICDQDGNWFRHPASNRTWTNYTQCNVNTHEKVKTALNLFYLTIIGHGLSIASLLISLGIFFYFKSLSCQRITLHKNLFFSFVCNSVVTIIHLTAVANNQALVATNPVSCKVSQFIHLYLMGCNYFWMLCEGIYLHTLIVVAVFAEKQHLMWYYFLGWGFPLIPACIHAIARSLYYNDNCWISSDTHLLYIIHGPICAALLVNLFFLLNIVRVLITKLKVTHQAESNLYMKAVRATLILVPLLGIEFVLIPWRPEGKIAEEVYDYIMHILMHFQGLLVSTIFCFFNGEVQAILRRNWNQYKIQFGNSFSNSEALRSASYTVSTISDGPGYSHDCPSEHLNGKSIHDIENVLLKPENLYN

[22] = molecular target: Cytochrome P450 3A4 (Homo sapiens, UniProt P08684); experiment: Inhibition of CYP3A4 (unknown origin); assay type: ADME
Cytochrome P450 3A4, sequence (P08684 whole entry): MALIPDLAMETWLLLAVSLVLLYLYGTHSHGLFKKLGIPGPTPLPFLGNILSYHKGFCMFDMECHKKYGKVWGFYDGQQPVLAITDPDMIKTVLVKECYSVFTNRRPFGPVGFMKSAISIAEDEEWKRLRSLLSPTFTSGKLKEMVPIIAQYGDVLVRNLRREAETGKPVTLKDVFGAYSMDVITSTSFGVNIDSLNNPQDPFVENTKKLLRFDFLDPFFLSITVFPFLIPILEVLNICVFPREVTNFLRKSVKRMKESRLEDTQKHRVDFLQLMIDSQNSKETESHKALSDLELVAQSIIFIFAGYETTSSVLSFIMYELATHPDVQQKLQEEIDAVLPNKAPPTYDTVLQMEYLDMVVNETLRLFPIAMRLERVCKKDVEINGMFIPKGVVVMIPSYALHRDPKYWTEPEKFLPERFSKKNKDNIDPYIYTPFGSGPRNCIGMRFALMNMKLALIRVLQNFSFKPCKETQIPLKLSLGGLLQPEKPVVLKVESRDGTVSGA

[23] = species: Canis lupus familiaris; experiment: Antagonist activity at dog CGRP receptor
[24] = Volume of distribution at steady state in rat at 2 mg/kg, iv; assay type: ADME, organism-based; conditions: in vivo, read-out: Vdss
[25] = Protein binding in rat plasma by high-throughput dialysis method; assay type: ADME, cell-free; conditions: read-out: PPB (converted)
[26] = Solubility of the compound at pH 5.7 using amorphous form of sample; assay type: physicochemical; conditions: buffer
[27] = Half life in dog hepatocytes; assay type: ADME, cell-based, Canis lupus familiaris, Hepatocyte
[28] = Protein binding in cynomolgus monkey plasma by high-throughput dialysis method; assay type: ADME, cell-free, Macaca fascicularis; conditions: read-out: PPB (converted)
[29] = AUC (infinity) in cynomolgus monkey at 0.013 mg/kg, sc; assay type: ADME, organism-based, Macaca fascicularis; parameters: dose 0.013 mg/kg, route subcutaneous, time infinity; conditions: in vivo
[30] = molecular target: T3, Mas-related G-protein coupled receptor member X2 (Homo sapiens) (UniProt Q96LB1); experiment: Agonist activity at MRGPX2 (unknown origin) at 10 uM relative to control
T3 sequence (whole entry): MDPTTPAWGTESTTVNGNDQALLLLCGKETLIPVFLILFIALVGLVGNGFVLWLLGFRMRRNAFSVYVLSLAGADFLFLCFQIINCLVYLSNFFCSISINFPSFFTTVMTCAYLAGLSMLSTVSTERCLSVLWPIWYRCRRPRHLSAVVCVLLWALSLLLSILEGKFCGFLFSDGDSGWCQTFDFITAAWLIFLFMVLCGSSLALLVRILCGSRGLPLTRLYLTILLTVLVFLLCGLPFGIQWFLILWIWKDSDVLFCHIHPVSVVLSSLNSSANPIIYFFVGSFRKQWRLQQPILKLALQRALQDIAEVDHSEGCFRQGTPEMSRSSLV

[31] = Toxicity in rat assessed as behavioral changes at 0.1 to 1 mg/kg/day, sc administered for 10 days; assay type: organism-based; conditions: in vivo, 240 h
[32] = Apparent permeability across apical to basolateral side in MDCK cells; assay type: ADME, cell-based, Canis lupus familiaris; conditions: dog
[33] = Efflux ratio of apparent permeability in MDCK cells; assay type: ADME, cell-based, Canis lupus familiaris; conditions: dog
[34] = molecular target: hERG (KCNH2) (Homo sapiens, UniProt Q12809); experiment: Inhibition of human ERG at 300 uM relative to control
hERG (KCNH2), sequence (Q12809 whole entry): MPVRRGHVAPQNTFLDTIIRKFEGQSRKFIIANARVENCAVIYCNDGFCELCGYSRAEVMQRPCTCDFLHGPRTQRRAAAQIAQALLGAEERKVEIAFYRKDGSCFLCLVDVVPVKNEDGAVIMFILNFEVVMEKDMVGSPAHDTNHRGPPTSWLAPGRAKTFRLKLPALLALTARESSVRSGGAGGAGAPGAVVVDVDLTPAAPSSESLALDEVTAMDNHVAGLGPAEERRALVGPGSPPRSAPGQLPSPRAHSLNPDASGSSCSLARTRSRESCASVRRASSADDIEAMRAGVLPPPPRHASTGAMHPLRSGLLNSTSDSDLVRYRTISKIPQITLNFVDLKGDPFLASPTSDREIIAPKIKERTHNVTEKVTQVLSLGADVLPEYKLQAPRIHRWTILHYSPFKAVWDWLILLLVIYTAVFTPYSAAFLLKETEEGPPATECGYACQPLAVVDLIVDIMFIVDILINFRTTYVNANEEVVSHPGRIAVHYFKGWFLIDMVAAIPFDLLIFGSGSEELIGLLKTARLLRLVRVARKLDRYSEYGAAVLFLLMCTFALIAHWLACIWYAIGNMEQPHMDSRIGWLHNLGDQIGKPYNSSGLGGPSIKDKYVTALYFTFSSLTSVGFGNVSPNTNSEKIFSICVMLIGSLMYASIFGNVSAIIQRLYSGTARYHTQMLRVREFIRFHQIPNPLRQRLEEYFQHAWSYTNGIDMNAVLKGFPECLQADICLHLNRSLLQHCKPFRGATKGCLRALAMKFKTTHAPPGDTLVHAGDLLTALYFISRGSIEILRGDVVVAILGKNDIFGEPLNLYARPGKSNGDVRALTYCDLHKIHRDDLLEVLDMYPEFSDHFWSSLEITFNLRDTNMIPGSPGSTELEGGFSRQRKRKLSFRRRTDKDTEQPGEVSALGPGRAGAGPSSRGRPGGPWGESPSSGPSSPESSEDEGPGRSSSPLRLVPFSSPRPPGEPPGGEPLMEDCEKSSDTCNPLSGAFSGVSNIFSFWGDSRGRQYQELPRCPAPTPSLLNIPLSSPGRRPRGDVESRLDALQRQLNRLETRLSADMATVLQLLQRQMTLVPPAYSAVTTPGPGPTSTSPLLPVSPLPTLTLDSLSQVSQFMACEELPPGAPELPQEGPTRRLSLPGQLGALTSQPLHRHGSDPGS

[35] = molecular target: Cytochrome P450 2C19 (Homo sapiens, UniProt P33261); experiment: Inhibition of CYP2C19 (unknown origin); assay type: ADME
Cytochrome P450 2C19, sequence (P33261 whole entry): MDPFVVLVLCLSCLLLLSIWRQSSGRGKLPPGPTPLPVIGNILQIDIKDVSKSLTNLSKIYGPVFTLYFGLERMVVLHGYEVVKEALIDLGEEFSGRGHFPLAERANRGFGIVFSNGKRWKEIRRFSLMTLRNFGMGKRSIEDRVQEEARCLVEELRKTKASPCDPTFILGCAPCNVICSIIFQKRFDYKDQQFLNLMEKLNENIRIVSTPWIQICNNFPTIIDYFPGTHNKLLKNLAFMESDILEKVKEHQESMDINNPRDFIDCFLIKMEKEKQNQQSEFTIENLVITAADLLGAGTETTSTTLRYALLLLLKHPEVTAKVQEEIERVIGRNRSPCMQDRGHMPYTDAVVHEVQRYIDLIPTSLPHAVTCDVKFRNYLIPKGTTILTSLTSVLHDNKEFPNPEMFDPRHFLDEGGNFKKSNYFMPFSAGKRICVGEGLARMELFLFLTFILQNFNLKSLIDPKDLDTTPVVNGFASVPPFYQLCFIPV

## Cc1cc(C[C@@H](NC(=O)N2CCC3(CC2)OC(=O)Nc2ncccc23)C(=O)N[C@@H](CC2CCNCC2)C(=O)N2CCN(c3ccncc3)CC2)cc2cn[nH]c12 [HTL-0022562]
[1]
  bioavailability: 68%
[2]
  Vd: 0.3 L/kg
[3]
  bioavailability: 123%
[4]
  solubility thermodynamic: 2920 µM (≈ 2230 µg/mL)
[5]
  half-life: 4.7 h
[6]
  half-life: 1.2 h
[7]
  fold induction at 3 µM: 2.3
[8]
  inhibition: 65%
[9]
  Vd: 0.4 L/kg
[10]
  IC50: > 50.1 µM
[11]
  degraded at 168 h: 0.8%
[12]
  half-life: 3.5 h
[13]
  pKb: < 5.7
[14]
  pKi: 11.3
[15]
  IC50: > 50.1 µM
[16]
  degraded at 168 h: 4.5%
[17]
  half-life: > 5 h
[18]
  bioavailability: 117%
[19]
  Tmax: 0.7 h
[20]
  half-life: > 5 h
[21]
  Ki: 0.0316 nM
[22]
  IC50: > 50.1 µM
[23]
  pKb: 7.2
[24]
  Vd: 1 L/kg
[25]
  fraction unbound: 0.59
[26]
  solubility: 115 mg/mL (≈ 151 mM)
[27]
  half-life: > 5 h
[28]
  fraction unbound: 0.69
[29]
  AUC(0-inf): 81 ng·h/mL
[30]
  Activity: 80%
[31]
  Activity: Non-Toxic
[32]
  Papp A→B: 0.8 ×10⁻⁶ cm/s
[33]
  efflux ratio: > 2.7
[34]
  inhibition at 300 µM: 6%
[35]
  IC50: > 50.1 µM
